According to the METLIN SMRT retention time set (Domingo-Almenara et al. 2019):

Experiment: gradient 5% acetonitrile 3 min, to 50% in 2 min, to 85% in 15 min, held 3 min, 100 µL/min
Details: column: Zorbax Extend-C18 2.1 x 50 mm; eluents: water / acetonitrile, 0.1% formic acid
Outline: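 A Zorbax Extend-C18 column (2.1 × 50 mm, 1.8 μm) run at 100 μL/min with water and acetonitrile, both containing 0.1% formic acid, separated mixtures of ~100 pure standards. The HPLC was coupled to a quadrupole time-of-flight mass spectrometer operated in positive and negative ionization mode, with dead and dwell volumes of 40 μL and 900 μL. Each retention time was taken from a computationally picked adduct peak that was then manually inspected.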

SMILES | RP-LC retention time
Cc1ccc(Oc2nccn3c(=O)n(CC(=O)Nc4ccc(C)c(Cl)c4)nc23)cc1 | 1010 s
CSc1ccc(CCNC(=O)Cn2c(=O)c3cccn3c3ccc(F)cc32)cc1 | 897 s
Cc1ccc2nc(Nc3nccc(C)n3)nc(C)c2c1 | 616 s
CCN(CC)CCOc1ccccc1/C=C/c1noc2ccccc12 | 724 s
CN(C)CCn1cc(C(=O)NCc2ccco2)ccc1=O | 590 s
O=C(NCCCn1cccn1)C1CN(S(=O)(=O)c2ccccc2)CC12CCCCC2 (stereo not given) | 819 s
CCN(CC)CCNC(=O)c1cc2cc(S(=O)(=O)N(C)C)ccc2n1CC | 633 s
O=C(Cn1nc2c3cc(-c4ccccc4)nn3ccn2c1=O)Nc1ccccc1Cl | 902 s
CS(=O)(=O)N1CCC(C(=O)NC2CCCCCC2)Oc2ccc(Cl)cc21 (stereo not given) | 991 s
Cc1cccc(-c2ncccc2CNS(=O)(=O)c2cc(F)cc(F)c2)c1 | 776 s
Cc1ccc(-c2nc3ccccn3c2Nc2ccc3c(c2)OCO3)cc1 | 694 s
O=C(CSc1nnc2c3cc(-c4ccc(F)cc4)nn3ccn12)Nc1ccccc1F | 881 s
CC(=O)NCc1csc(C2CCN(C(=O)COc3ccc(Cl)cc3)CC2)n1 | 708 s
O=C(c1ccsc1)N1CCN(c2nnc3ccc(Cl)cn23)CC1 | 615 s
CC(C)(C)c1csc(-c2csc(S(=O)(=O)N3CCN(c4ccccn4)CC3)c2)n1 | 974 s
COCCNC(=O)C1CCN(C(=O)c2cc3ccsc3n2Cc2ccc(Cl)cc2)CC1 | 843 s
Cc1nn(CC(=O)NCCC(C)C)c(=O)c2c(-n3cccc3)n(-c3ccc(Cl)cc3)nc12 | 1030 s
Cc1nc(Cn2cccc2C(=O)Nc2ccc(F)cc2F)no1 | 793 s
CC(C)CCN1CCC(N2CCN(S(=O)(=O)c3ccc(C(F)(F)F)cc3)CC2)C1=O (stereo not given) | 794 s
O=C(Nc1ccccc1F)Nc1c(-c2ccccc2)nc2ccccn12 | 666 s
O=C(Nc1ccc(Br)cc1)N(c1ccccc1)c1ccccc1 | 1040 s
O=C1CCCC(=O)N1CCS(=O)(=O)NCc1cccc(Oc2ccc(F)cc2)c1 | 840 s

SMILES | RP-LC retention time
O=C(C1COc2ccccc2O1)N1CCN(c2cc(-c3ccc(Cl)cc3)[nH]n2)CC1 (stereo not given) | 926 s
Cc1cnn(CC(=O)N2CC(n3cc(COc4ccc(F)cc4)nn3)C2)c1 | 714 s
CC1CN=C2C=C(N3CCN(C(=O)NCCc4ccccc4)CC3)N=CN21 (stereo not given) | 620 s
O=c1c2ccccc2ncn1-c1ccc(Cl)cc1 | 870 s
Cc1cc(Cl)ccc1S(=O)(=O)N1CCCC(Cn2cnc3cccnc32)C1 (stereo not given) | 853 s
CN(C)c1ccc(CNC(=O)C2CCN(c3cncnc3N3CCCC3)CC2)cc1 | 555 s
Cc1nn2c(CNS(=O)(=O)Cc3ccc(Cl)cc3)c(-c3ccccc3)nc2s1 | 954 s
O=C(c1cc(-c2ccco2)on1)N1CCC(Oc2nc3ccccc3s2)CC1 | 1030 s
Cc1ccc(S(=O)(=O)N2C[C@H]3CN(C(=O)NCCc4ccccc4)C[C@@H](C2)O3)cc1 | 834 s
O=C(Cn1ccc2ccn(Cc3ccccc3)c2c1=O)NCc1ccccc1Cl | 888 s
O=C(Cn1c(=O)c2cc(-c3cccs3)nn2c2ncccc21)Nc1ccc(Cl)cc1 | 932 s
CCN1C(=O)CC[C@]2(CN(C)C(=O)Cc3cccc(F)c3)CCC[C@@H]12 | 752 s
Cc1csc(C(=O)NC2CNC(=O)C2)c1 (stereo not given) | 572 s
O=C(Cc1csc2nc(-c3ccccc3)cn12)N1CCN(c2ccc(Cl)cc2)CC1 | 915 s
Cc1ccc(C(=O)COc2cc(O)c3c(=O)cc(-c4ccccc4)oc3c2)cc1 | 1210 s
CCN1CCN(c2cc(C)c3cc(NC(=S)NCc4ccc(F)cc4Cl)ccc3n2)CC1 | 657 s
CCCNc1cc(N2CCC(CCC(=O)NCCc3cccnc3)CC2)ncn1 | 542 s
Cc1nnc2c(=O)n(CC(=O)N3CCN(c4ccccc4)CC3)c3cccnc3n12 | 682 s
CSc1ccc(-c2nc3ccc(Cl)cn3c2Nc2ccc(Cl)cc2)cc1 | 993 s
Cc1ccc(-n2c(=O)c3sccc3n(Cc3nc(-c4ccc(Cl)c(F)c4)no3)c2=O)cc1 | 1150 s
CC(C)Oc1ccc(C(=O)O)cc1 | 823 s
C#CCN[C@@H]1CCc2ccccc21 | 613 s

Next, values leading:

RP-LC retention time | SMILES
697 s | COCCCNC(=O)c1cc2n(n1)CCCN(Cc1ccc(F)cc1)C2=O
965 s | Cc1cc2c(cc1S(=O)(=O)N1CCCC1C(=O)Nc1ccc(F)c(Cl)c1)OCC(=O)N2 (stereo not given)
890 s | Cc1cccc(C(=O)NCCc2c[nH]c3ccc(C)cc23)c1
708 s | CCN(CC)S(=O)(=O)N1CCC(C(=O)Nc2cccc(CCc3nc4ccc(C)cc4[nH]3)c2)CC1
861 s | CC(C)n1c(=O)sc2cc(S(=O)(=O)N3CCC(C(=O)NCc4ccco4)CC3)ccc21
681 s | CCN(CC)CCCNc1ccc(-c2nc(-c3ccc(OC)cc3)no2)cn1
1010 s | COC(=O)COC(=O)c1cn(-c2cccc(Cl)c2)c(=O)c2ccccc12
642 s | Cc1ccc(NC(=O)Cc2c(C(=O)O)c(C)cn2C)nc1
756 s | CSc1ccccc1NC(=O)c1cc2nc(C)ccc2o1
1110 s | COc1ccc(-c2noc(Cc3nnc(-c4cc(C)cc(C)c4)o3)n2)cc1
673 s | COc1ccc(F)cc1S(=O)(=O)N1CCc2nn(C)c(=O)n2CC1
840 s | COc1ccc(NC(=O)C2CCN(S(=O)(=O)c3ccc4c(c3)sc(=O)n4C)CC2)c(OC)c1
866 s | Cc1nc(-c2noc(-c3ccccc3)n2)cn1CC(=O)NCc1ccc(F)c(Cl)c1
818 s | CNC(=O)c1ccc(C)c(-n2c(C)cc(OCc3ccc(F)cc3F)c(Br)c2=O)c1
611 s | Cc1nc2cc(N3CCC(C(=O)O)CC3)cnc2nc1C
801 s | CC1CCC2(CC1)NC(=O)N(CC(=O)NCc1ccc(F)cc1)C2=O (stereo not given)
638 s | COc1ncc(C(=O)Nc2ccc(F)cc2C)c(C)n1
913 s | COc1ccc(Cc2nn3c(Cc4ccc(OC)cc4)nnc3s2)cc1
963 s | CCOc1ccccc1NC(=O)NCc1nc(-c2ccccc2)oc1C
1160 s | CC(C)c1cc(C(=O)Nc2ccc(F)cc2F)nc2ccnn12
962 s | CCC(CC)C(=O)Nc1nc(-c2ccc3c(c2)N(C)C(=O)CO3)c(C)s1
710 s | CCC1CCCCN1Cc1ccc(CNC(=O)c2c(C)oc3c2C2=NCCN2C=N3)o1 (stereo not given)
597 s | Cc1cc2nc(NC3=NCN(CCO)CN3)nc(C)c2cc1C

RP-LC retention time | SMILES
649 s | COc1ccc(C2Cn3cnc(C(=O)N4CCC(C(=O)NCC5CC5)CC4)c3CO2)cc1 (stereo not given)
855 s | COCCN1C(=O)c2ccccc2C(C(=O)NCc2ccccc2OC)C12CCCC2 (stereo not given)
1020 s | COc1ccc(-c2nc(-c3ccc4nnn(C(C)C)c4c3)no2)cc1OC
1280 s | COc1ccc(-c2nnc(-c3cccnc3N3CCN(c4ccccc4C)CC3)o2)cc1
954 s | CCC(C)NC(=O)N1CCC2(CC1)Nc1cc(F)ccc1-n1cccc12 (stereo not given)
637 s | COCCNC(=O)CCc1cc2cc(C)ccc2[nH]c1=O
799 s | CC(C)NC(=O)N1CCCC(c2cccc(C(=O)NCc3cccs3)c2)C1 (stereo not given)
702 s | CCCNc1cc(N2CCC(CCC(=O)NCc3ccccc3C)CC2)ncn1
908 s | O=C(NCCc1csc(-c2ccc(F)cc2)n1)c1ccc2c(c1)OCO2
727 s | Cc1onc(-c2c(F)cccc2Cl)c1C(=O)N1CCOCC1
853 s | O=C1CCCN1Cc1nc(-c2ccc(F)c(Cl)c2)no1
968 s | CC1=NS(=O)(=O)N(C)C=C1C(=O)OCc1c(F)cccc1Cl
550 s | CCN1CCN(C(=O)c2nc(N(CC)CC)c3c(C)cc(C)nc3n2)CC1
1250 s | CCCNC(=O)C1CCCN(c2nc3ccsc3c(=O)n2-c2ccc(C)cc2)C1 (stereo not given)
1240 s | COC(=O)c1ccc2c(=O)n(-c3cc(C)cc(C)c3)c(N3CCCC3)nc2c1
926 s | O=C(Cc1ccc(F)cc1)Nc1cc(-c2cccs2)no1
1080 s | COc1c(/C=N/NC(N)=O)c(OC)c(OC)c2c1CCO2
603 s | COCc1cc(=O)n(CC(=O)Nc2ccccc2C)c(N)n1
1070 s | O=C(Cn1cccc1-c1nc(-c2ccc3c(c2)OCO3)no1)Nc1ccc(Cl)cc1
1000 s | O=C(NCc1ccc2c(c1)OCO2)c1cnn2c3c(cnc12)CCCCCC3
876 s | CCc1noc(NC(C)=O)c1-c1ccc(OC)c(S(=O)(=O)Nc2cc(Cl)ccc2OC)c1
854 s | COc1ccc(-c2ncc3c(=O)n(CC(=O)Nc4cc(OC)cc(OC)c4)cnc3n2)cc1
605 s | O=C(CCc1nnc2c3cc(-c4ccc(F)cc4)nn3ccn12)NCCN1CCCC1
